Consider seven compounds from ChEMBL document CHEMBL1201862, “PubChem BioAssay data set” (2004).

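Following 48 hours of exposure in 96-well plates, responses at five concentrations were used to interpolate endpoints linearly. Here, GI50 denotes the concentration required for 50% inhibition of growth.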 Active and inactive are the calls of the source. Rule as the data show it: active = GI50 up to about 1.1 µM and inactive = higher. Bounds are passed on as bounds.

Test systems include HOP-18; M19-MEL; SNB-78; DMS-114; RXF 631; XF498; LXFL 529; KM-20L2; DLD-1.
Experiment in all cases: NCI tumour cell line growth inhibition, 48 h

With `CNC(=O)OCc1c2ccncc2c(C)c2c1[nH]c1ccc(OC)cc12`, the GI50 in the experiment with HOP-18 was 0.254 µM (active); in the experiment with M19-MEL it was 0.344 µM (active); in the experiment on SNB-78, 0.119 µM (active); in the experiment on DMS-114 it was 0.226 µM (active); with RXF 631, 0.675 µM (active); with XF498, 1.03 µM (active). Besides, the GI50 in the experiment on LXFL 529 was 0.115 µM (active); in the experiment with KM-20L2 it was 0.227 µM (active).

For `C[Si](C)(C)OC1CC(=O)OC1n1cc(F)c(=O)[nH]c1=O` (configuration not stated), the GI50 in the experiment with HOP-18 was 23.2 µM (inactive); in the experiment with M19-MEL it was 12.1 µM (inactive); with DMS-114 it was 27.2 µM (inactive); with DLD-1, 7.62 µM (inactive); in the experiment on RXF 631 it was 14.6 µM (inactive); with XF498, 90.2 µM (inactive). The GI50 was 52.4 µM (inactive) with LXFL 529 and 16.2 µM (inactive) with KM-20L2.

On to `O=C(O)CNS(=O)(=O)c1ccc(NC(=O)c2cccc([N+](=O)[O-])c2)cc1`, for which the GI50 in the experiment on HOP-18, in the experiment on M19-MEL, in the experiment with DLD-1, in the experiment with RXF 631, with XF498 and in the experiment on LXFL 529 was > 100 µM (inactive) each time. Moreover, the GI50 in the experiment on KM-20L2 is > 100 µM (inactive).

For `NS(=O)(=O)c1ccc(NC(=O)c2cccc3c(Nc4ccc(S(N)(=O)=O)cc4)c4ccccc4nc23)cc1`, the GI50 with HOP-18 was > 100 µM (inactive); with M19-MEL, 21.4 µM (inactive); in the experiment with SNB-78, 29.8 µM (inactive); in the experiment with DMS-114, 39.3 µM (inactive); in the experiment on DLD-1 it was 24.7 µM (inactive); in the experiment on RXF 631, 3.48 µM (inactive). Also, the GI50 in the experiment with XF498 was 27.2 µM (inactive); in the experiment with LXFL 529, 12.2 µM (inactive); in the experiment with KM-20L2, 67.1 µM (inactive).

On to `Nc1nc(N)c(-c2ccc(Cl)cc2)c(CCC(=O)Nc2cccc(C(F)(F)F)c2)n1`, for which the GI50 with HOP-18, with SNB-78, in the experiment with DMS-114, in the experiment on DLD-1, in the experiment with RXF 631 and in the experiment on XF498 was > 100 µM (inactive) throughout. The GI50 with LXFL 529 and in the experiment on KM-20L2 was > 100 µM (inactive) each time.

On to `COC(=O)/C(=N\NC(C)(C)C)C(C(=O)OC)C(=O)C(=O)Nc1cc(Cl)ccc1Cl` (configuration not stated), for which the GI50 with HOP-18, in the experiment with M19-MEL, in the experiment on SNB-78, in the experiment on DMS-114, in the experiment with DLD-1 and in the experiment on RXF 631 was > 100 µM (inactive) in each case. Besides, the GI50 with XF498, in the experiment on LXFL 529 and in the experiment with KM-20L2 was > 100 µM (inactive) throughout.

In the case of `Nc1ccc(C(=O)Nc2ccccc2N)cc1` [DINALINE], the GI50 in the experiment with HOP-18 was 36.7 µM (inactive); in the experiment on M19-MEL, 25.7 µM (inactive); in the experiment with SNB-78, > 100 µM (inactive); with DMS-114 it was 34.5 µM (inactive); with DLD-1 it was 44.3 µM (inactive); in the experiment on RXF 631, 37.4 µM (inactive). Also, the figures for the GI50 in the experiment with XF498 and in the experiment with LXFL 529 were > 100 µM (inactive) and 22.5 µM (inactive), respectively.
